Patent US20030161902A1, “Increased lifespan formulation” (priority 2001, published 2003)

How the values were obtained:
rodent = rodent trials, dietary supplementation; cited from earlier work
[1] = Antioxidant activity of mouse food and pine bark extract (Table 2); format: biochemical
Experimental: The experimental mice were fed ad libitum on Archer's mouse food pellets dosed with measured doses of pine bark extract manufactured as above. Preferably, the present composition is administered in a form selected from the group including: a tablet; a capsule; a suppository; an injection; a suspension; a drink; a tonic; a syrup; a powder; an ingredient in solid foods; an ingredient in liquid foods; and combinations thereof, all of which are considered equivalent. Most preferably, the composition is administered orally as a powder mixed with food. The antioxidant composition of the food was as follows (Table 2 below): […]

mice = details: cited from earlier work

For vitamin E, the “effect on mean survivorship and maximum life span” value (rodent) is listed as “Increases in mean survivorship, but not maximum life span”.
For `O=C1O[C@H]([C@@H](O)CO)C(O)=C1O` [Vitamin C], the EC50 ([1]; antioxidant composition of sample) is given as 3.79 µg/mL, the “RELATIVE ANTIOXIDANT ACTIVITY” value ([1]; relative to mouse pellet = 1) is given as 1.76 and the “effect on mean survivorship and maximum life span” value (rodent) is given as “Increases in mean survivorship, but not maximum life span”.
For `OCCS` [2-mercaptoethanol], the “effect on maximum lifespan” value (mice; mice fed supplement) is given as “increase in maximum lifespan” and the toxicity (mice; mouse, in vivo) is given as “toxic”.
